Assay: Body weight gain-reducing action in KKAy mice
Settings: female KKAy mice; for % control (blood glucose level): in admixture with the feed for 4 days, blood glucose relative to own control group = 100

SMILES	% control (blood glucose level) [%]	effect on body weight (in words) (4 days, dose that reduced the blood glucose level to 50-58%)
Cc1oc(-c2ccccc2)nc1COc1ccc(CO/N=C(\CCC(=O)O)c2ccccc2)cc1 [compound of Production Example 3, E-4-[4-(5-methyl-2-phenyl-4-oxazolylmethoxy)benzyloxyimino]-4-phenylbutyric acid]	50	–
CN(CCOc1ccc(CC2SC(=O)NC2=O)cc1)c1ccccn1 (stereo not drawn) [rosiglitazone]	58	significantly increased the body weight

From patent US20050239854A1, “Body weight gain inhibitors” (priority 1999, published 2005)
